# Key:
# chymotrypsin = chymotrypsin (Bos taurus, UniProt P00766); assay: Chymotrypsin activity in vitro, photometric, MeO-Suc-Ala-Ala-Pro-Phe-p-nitroanilide substrate
# human plasmin = molecular target: T1, human plasmin (Homo sapiens, UniProt P00747); assay: Plasmin activity in vitro, photometric, substrate D-Ile-Phe-Lys-pNA; format: biochemical; settings: for IC50: human plasmin in vitro, FIG. 2, read-out: half-maximum inhibition constants (IC50) of plasmin activity; for inhibition of plasmin activity, summary in words: in vitro test system, concentrations reachable in human blood after oral olibanum or frankincense extracts
# T1 construct: purchased SIGMA
# T1 sequence (P00747 581-810 limits assumed): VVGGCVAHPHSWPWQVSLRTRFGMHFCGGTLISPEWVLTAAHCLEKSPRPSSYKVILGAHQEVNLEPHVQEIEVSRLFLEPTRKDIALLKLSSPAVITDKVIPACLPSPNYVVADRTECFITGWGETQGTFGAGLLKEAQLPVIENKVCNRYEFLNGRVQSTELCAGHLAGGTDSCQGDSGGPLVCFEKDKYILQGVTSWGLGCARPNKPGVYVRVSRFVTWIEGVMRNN
# T1 sequence (P00747 97-580 partner limits assumed): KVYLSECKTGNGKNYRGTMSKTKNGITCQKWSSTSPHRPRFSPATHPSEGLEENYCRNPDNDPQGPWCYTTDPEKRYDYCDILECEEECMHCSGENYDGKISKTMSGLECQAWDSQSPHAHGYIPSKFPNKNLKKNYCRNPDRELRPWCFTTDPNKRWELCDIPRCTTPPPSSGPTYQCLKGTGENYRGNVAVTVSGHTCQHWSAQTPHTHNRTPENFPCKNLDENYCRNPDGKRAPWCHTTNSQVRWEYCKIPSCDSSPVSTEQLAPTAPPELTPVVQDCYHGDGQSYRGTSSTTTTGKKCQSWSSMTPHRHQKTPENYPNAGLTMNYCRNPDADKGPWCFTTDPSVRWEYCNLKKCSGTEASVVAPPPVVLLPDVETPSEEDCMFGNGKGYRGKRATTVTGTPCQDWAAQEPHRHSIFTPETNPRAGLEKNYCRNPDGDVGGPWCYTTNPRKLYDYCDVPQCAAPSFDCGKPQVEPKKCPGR
# Description: The activity of human plasmin (SIGMA) was determined photometrically in vitro with the substrate D-Ile-Phe-Lys-pNA (Cs-Szabo et al., Thrombosis Res. 1980, 20: 199-206). The plasmin activity is referred to as the release of p-nitronaniline per minute (nmole/min) from the substrate as mean values±S.D. of n=3 measurements each.
# [1] = molecular target: T2, human leucocytic elastase (Homo sapiens, UniProt P08246); assay: Human leucocytic elastase activity in vitro, photometric, MeO-Suc-Ala-Ala-Pro-Val-p-nitroanilide substrate; format: biochemical; settings: for remaining activity at 20 µM: 20 μM test compound, percentage of 100% controls, read-out: residual activity of human leucocytic elastase; for inhibitory effect on human leucocytic elastase: concentration of 20 μM each in the test, reference substances
# T2 construct: purchased Calbiochem
# T2 sequence (P08246 30-267): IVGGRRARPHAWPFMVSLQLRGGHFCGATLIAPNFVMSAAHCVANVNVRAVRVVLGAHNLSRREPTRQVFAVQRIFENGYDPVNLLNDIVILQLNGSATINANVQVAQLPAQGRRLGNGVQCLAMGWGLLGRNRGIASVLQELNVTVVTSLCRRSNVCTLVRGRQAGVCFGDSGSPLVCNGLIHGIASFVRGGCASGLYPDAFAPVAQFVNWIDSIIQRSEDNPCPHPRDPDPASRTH
# Source text: The effects which differing concentrations of acetyl-11-keto-β-boswellic acid (AKBA) had on the human leucocytic elastase in these three series of measurement are shown as percentage of 100% controls as mean values±S.D. of three independent measurements each.
# human leucoytic elastase = molecular target: T3, human leucoytic elastase (Homo sapiens, UniProt P08246); settings: literature, Ying et al. 1991, Biochem. J. 277: 521-526; read-out: Ki values, inhibition of human leucocytic elastase; cited from earlier work
# T3 sequence (P08246 30-267): T2 sequence (P08246 30-267)
compound,measurement,setting,value
"CC(=O)OC1CCC2(C)C(CCC3(C)C2C(=O)C=C2C4C(C)C(C)CCC4(C)CCC23C)C1(C)C(=O)O (stereo not drawn) [AKBA, acetyl-11-keto-β-boswellic acid]","chymotrypsin activity, of the control activity",chymotrypsin; 50 μM test compound,89%
same,"chymotrypsin activity, of the control activity",chymotrypsin; 100 μM test compound,85%
same,IC50,human plasmin,4 to 6 µM
same,"inhibition of plasmin activity, summary in words",human plasmin,inhibited almost completely
same,remaining activity at 20 µM,[1],18%
same,IC50,"[1]; substrate concentrations of 50, 100 and 150 μM, 10% DMSO, room temperature, read-out: IC50 values, inhibition of human leucocytic elastase",~17 µM
CC(C)c1ccc2c(c1)c(SC(C)(C)C)c(CC(C)(C)C(=O)O)n2Cc1ccc(Cl)cc1 [MK886],inhibitory effect on human leucocytic elastase,[1],no inhibitory effect
CC(Cc1ccc(O)c(O)c1)C(C)Cc1ccc(O)c(O)c1 (stereo not drawn) [NDGA],inhibitory effect on human leucocytic elastase,[1],no inhibitory effect
CCCCC/C=C\C/C=C\C/C=C\C/C=C\CCCC(=O)O [arachidonic acid],inhibitory effect on human leucocytic elastase,[1],no inhibitory effect
C[C@]12CCC(=O)C=C1CC[C@@H]1[C@@H]2[C@@H](O)C[C@@]2(C)[C@H]1CC[C@]2(O)C(=O)CO [cortisol],inhibitory effect on human leucocytic elastase,[1],no inhibitory effect
CC1(C)[C@@H](O)CC[C@]2(C)[C@H]3C(=O)C=C4[C@@H]5C[C@@](C)(C(=O)O)CC[C@]5(C)CC[C@@]4(C)[C@]3(C)CC[C@@H]12 [glycerrhitinic acid],inhibitory effect on human leucocytic elastase,[1],no inhibitory effect
C[C@]12CC[C@H]3[C@@H](CCC4=CC(=O)CC[C@@]43C)[C@@H]1CC[C@@H]2O [testosterone],inhibitory effect on human leucocytic elastase,[1],no inhibitory effect
C[C@H]1[C@H](C)CC[C@]2(C(=O)O)CC[C@]3(C)C(=CC[C@@H]4[C@@]5(C)CC[C@H](O)C(C)(C)[C@@H]5CC[C@]43C)[C@H]12 [ursolic acid],"chymotrypsin activity, of the control activity",chymotrypsin; 50 μM test compound,56%
same,"chymotrypsin activity, of the control activity",chymotrypsin; 100 μM test compound,30%
same,IC50,human plasmin,~15 µM
same,"inhibition of plasmin activity, summary in words",human plasmin,substantially weaker
same,remaining activity at 20 µM,[1],11%
same,Ki,human leucoytic elastase,4 to 6 µM
"C[C@H]1[C@H](C)CC[C@]2(C)CC[C@]3(C)C(=CC[C@@H]4[C@@]5(C)CC[C@@H](O)[C@](C)(C(=O)O)[C@@H]5CC[C@]43C)[C@H]12 [β-BA, β-boswellic acid]","inhibition of plasmin activity, summary in words",human plasmin,inhibited almost completely
amyrin,influence on plasmin activity,human plasmin; concentrations up to 50 μM (not shown),does not influence significantly
same,"inhibition of plasmin activity, summary in words",human plasmin,not effective at all
